Laboratory results as given in ChEMBL document CHEMBL1938305, “Antioxidative oligostilbenes from Caragana sinica” (Bioorg Med Chem Lett, 2012).

Legend:
[1] = tested on: Radical scavenging activity; test: Antioxidant activity assessed as DPPH free radical scavenging activity after 30 mins by microplate reader assay; assay type: functional
[2] = Antioxidant activity assessed as inhibition of lipid peroxidation; assay type: functional

Structure (SMILES)	IC50 [1] [µM]	IC50 [2] [µM]
Oc1ccc([C@H]2c3c(O)cc(O)cc3[C@H]3c4c(O)cc(O)cc4[C@@H]2[C@H]3c2ccc(O)cc2)cc1	> 200	> 200
Oc1ccc(C2[C@H]3c4cc(O)cc(O)c4[C@@H](c4ccc(O)cc4)[C@@H]2c2cc(O)cc(O)c23)cc1 (stereo partly drawn)	> 200	> 200
Oc1ccc([C@H]2Oc3cc(O)cc4c3[C@@H]2c2cc(O)cc3c2[C@@H](c2cc(O)cc5c2[C@@H]4[C@H](c2ccc(O)cc2)O5)[C@H](c2ccc(O)cc2)O3)cc1 (relative stereo)	> 200	> 200
Oc1ccc([C@@H]2c3c(O)cc(O)cc3[C@H]3[C@H](c4ccc(O)cc4)c4c(O)cc(O)cc4[C@@H]23)cc1 (relative stereo) [PALLIDOL]	165	128
Cc1c(C)c2c(c(C)c1O)CC[C@@](C)(CCC[C@H](C)CCC[C@H](C)CCCC(C)C)O2 [ALPHA-TOCOPHEROL]		12.5
O=C1O[C@H]([C@@H](O)CO)C(O)=C1O [ASCORBIC ACID]	57.2	
O=C(c1ccc(O)cc1)[C@H]1c2cc(O)cc(O)c2[C@@H](c2ccc(O)cc2)[C@H]1c1cc(O)cc(O)c1 [CARAPHENOL B]	73.9	43.1
COc1cc(O)cc2c1C(=O)C(O)(Cc1ccc(O)cc1)O2 (stereo not drawn) [CARPUSIN]	> 200	> 200
Oc1ccc([C@H]2Oc3cc(O)cc([C@@H]4[C@H](c5cc(O)cc(O)c5)[C@@H](c5ccc(O)cc5)O[C@H]4c4ccc(O)cc4)c3[C@@H]2c2cc(O)c3c(c2)[C@@H](c2cc(O)cc(O)c2)[C@H](c2ccc(O)cc2)O3)cc1 [KOBOPHENOL A]	> 200	> 200
Oc1ccc(/C=C/c2cc(O)cc(O)c2)cc1 [RESVERATROL]	92.1	30.1
